# Measured values reported in PMC10770036, “Novel dual inhibitors of PARP and HDAC induce intratumoral STING-mediated antitumor immunity in triple-negative breast cancer” (Cell Death & Disease, 2024).
# What was measured:
# [1] = tested on: RAD51; assay: Western blot of RAD51 expression in TNBC cells; type: cell-based, human; settings: 2.5 μM compared with the positive controls at 5 μM, 24 h
# Method: Western blot analysis was performed as previously described, and all western blot analyses were performed at least three times.
# Western blot analysis was performed as previously described. Briefly, whole cell or tissue lysates were prepared using ice-cold Nonidet P-40 buffer mixed with protease and phosphatase inhibitors (Roche, IN, USA) and centrifuged at 14,000 × g at 4 °C for 10 min. The protein lysates were fractionated by sodium dodecyl sulfate–polyacrylamide gel electrophoresis (SDS–PAGE) and transferred to polyvinylidene fluoride (PVDF) membranes (Merck, Darmstadt, Germany). Membranes were incubated in 1× TBST buffer containing 5% nonfat powdered milk at room temperature for 2 h. The indicated primary antibody was incubated with PVDF membranes, followed by a washing step using 1× TBST and a secondary antibody conjugated to HRP. Signal detection was carried out using the Western ECL Substrate kit (Bio-Rad, Hercules, CA, USA). […]
# [2] = tested on: MDA-MB-436, MDA-MB-231, and 4T1 cell-derived xenografts; assay: Antitumor effect in tumor-bearing mice; type: in vivo; settings: B102 15 mg/kg or B302 50 mg/kg, intraperitoneal, once daily, versus vehicle
# Description: MDA-MB-436, MDA-MB-231, and 4T1 cells were orthotopically injected into the fat pads of 6- to 7-week-old female NOD-Prkdc^scid Il2rg^em1Smoc (M-NSG), BALB/c nude and BALB/c mice, respectively. Fourteen 6-week-old female MMTV-PyMT mice were divided into two groups. The […] in each group were littermates. All animal procedures were approved by the Institutional Animal Care and Use Committee at Shenzhen University.
# MDA-MB-436 cells (5 × 10^6) were suspended in PBS and Matrigel (Corning) at a 1:1 ratio and orthotopically injected into the fat pads of 6- to 7-week-old female NOD-Prkdc^scid Il2rg^em1Smoc (M-NSG) mice from the Shanghai Model Organisms Center, Inc. MDA-MB-231 cells (5 × 10^6) were suspended in PBS orthotopically injected into the fat pads of 6- to 7-week-old female BALB/c nude mice from the Shanghai Model Organisms Center, Inc. 4T1 cells (1 × 10^6) were suspended in PBS and injected into the fat pads of 6- to 7-week-old […] BALB/c mice from GemPharmatech Co., Ltd. When the tumor size reached 100 mm^3, the mice were randomly divided into three treatment groups without blinding: B102 (15 mg/kg), B302 (50 mg/kg) or vehicle [10% N,N-dimethylacetamide (DMAC, Sangon Biotech) and 6% polyethylene glycol 12-hydroxystearate (Solutol HS-15, MedChem Express, Monmouth Junction, NJ, USA) in saline] treatment via an intraperitoneal injection once daily. […]
smiles,measurement,setting,value
Nc1cc(F)ccc1NC(=O)/C=C/c1ccc(CN2CCN(C(=O)c3cc(Cc4n[nH]c(=O)c5ccccc45)ccc3F)CC2)cc1 [Compound B102],inhibitory effect on RAD51,[1],more potent inhibitory effect on RAD51
same,tumor growth,[2],robust inhibition of tumor growth at low doses
